Patent US20040229379A1, “Assay” (priority 2003, published 2004)

System: PDHK
Experiment: Binding affinity of fluorescent binder structures for PDHK

Cc1cc(C)n2c1C=C1C=CC(CCC(=O)NCc3ccc(C(=O)N4C[C@H](C)N(C(=O)[C@@](C)(O)C(F)(F)F)C[C@H]4C)cc3)=[N+]1[B-]2(F)F [(IV)] was tested, and the “binding affinity for PDHK relative to (III/IIIA)” value was “lower binding affinity for PDHK than (III/IIIA)”.
